# Test results reported in patent US12162836B2, “N-acyl-{4-[(4-aryl-phenyl)sulfonylmethyl]piperidine} compounds and their therapeutic use” (Modern Biosciences Limited, priority 2019, dated 2024).
# Key:
# [1] = tested on: collagen-induced arthritis in DBA/1j mice; assay: Mouse Collagen-Induced Arthritis; type: in vivo; details: 10 mg/kg/day, once daily for 14 days, oral gavage; arthritic index vs control
# Description: Seven- to eight-week-old male DBA/1j mice were used for all procedures. Animals were housed in groups of 10, and were maintained at 21° C.±2° C. on a 12-hour light/dark cycle with food and water ad libitum. Complete Freund's adjuvant (CFA) was prepared by emulsifying bovine type II collagen at 4 mg/mL with a 4 mg/mL suspension of Mycobacterium tuberculosis H37Ra in Incomplete Freund's Adjuvant (IFA) (0.85 mL paraffin oil and 0.15 mL mannide monooleate) in a 1:1 (v/v) ratio. All mice were immunised subcutaneously with 200 μg of bovine type II collagen in CFA. 21 days later, all mice were immunised subcutaneously with 100 μg of bovine type II collagen in IFA. The mice started to develop signs and symptoms of arthritis following the ‘booster’ immunisation.
# For macroscopic assessment of arthritis, the following signs were monitored in each paw of each mouse three times per week and summed to generate the Arthritic Index (A1) (the maximum A1 for one animal is 16): • 0=no visible effects of arthritis. • 1=oedema and/or erythema of 1 digit. • 2=oedema and/or erythema of 2 digits. • 3=oedema and/or erythema of more than 2 digits. • 4=severe arthritis of entire paw and digits.
# Animals were sorted into treatment groups with a mean arthritic index of 2.5 and then dosed once daily for 14 days with compound: by oral gavage for test compounds, or by subcutaneous injection at a dose of 10 mg/kg for the positive control, etanercept. After completion of the experiment, the mice were sacrificed.
# The data were analysed by generating an average of the arthritic index across each treatment group. The mean arthritic index was then compared to the arthritic index of control (untreated) animals using the following formula to generate a percentage inhibition of disease.
# [2] = Rodent Pharmacokinetics Studies; type: in vivo, rat; details: male Han Wistar rats; for i.v. AUC: 0.25 mg/kg intravenous; for Bioavail, F: oral vs intravenous; for half-life: rat, plasma
# Source text: Absorption and metabolic stability were studied using an in vivo pharmacokinetics assay.
# […] Test compounds were formulated in 0.5% carboxymethylcellulose (CMC)/0.1% Tween-80 for administration via the oral route, or in 5% DMSO/10% solutol in saline for administration via the intravenous route. For compound HMC-C-01-A the oral administration was formulated in 2% dimethylacetamide/20% hydroxypropyl-β-cyclodextrin in water. Animals were given free access to food throughout the study except for fasting overnight and until 2 hours post dose on the day of dosing.
# Blood samples were taken from the retro-orbital plexus at the following time points and placed in microtubes containing 20% K2EDTA solution:
# Oral Dosing: predose; 0.25, 0.5, 1, 2, 4, 6, 8, 12 and 24 hours post dose.
# Blood samples were centrifuged to obtain plasma, which was transferred to a separate container and frozen at −20° C.
# For analysis, samples were thawed at room temperature and prepared by protein precipitation with acetonitrile spiked with internal standard (500 ng/mL glipizide) in the ratio 1:4 with plasma.
# The pharmacokinetic parameters for the test compounds were calculated by Phoenix WinNonlin version 8.0 (Certara, CA) using standard non-compartmental methods. Peak plasma concentrations (Cmax) and time of the peak plasma concentration (Tmax) were the observed values. The area under the plasma concentration-time curve (AUC) was determined by use of the linear trapezoidal rule up to the last measurable concentration (AUClast) and thereafter by extrapolation of the terminal elimination phase to infinity (AUCinf). The elimination phase half-life (t1/2) was calculated as 0.693/kel.
# [3] = tested on: CYP1A2, CYP2C9, CYP2C19, CYP2D6 and CYP3A4; type: in vitro ADME, human
# Description: The ability of test compounds to inhibit five of the most relevant cytochrome P450 enzymes was measured by determination of the activity of cytochrome P450 enzymes in recombinant cytochrome preparations, called Bactosomes (Cypex Ltd, Dundee, Scotland UK DD2 1 NH), in the presence of a specific probe substrate. Bactosomes are a highly efficient and cost-effective source of recombinant CYP450s which have a higher specific activity of enzyme compared to other sources, such as liver microsomes. […] The following CYP450 isoforms were assayed: CYP1A2, CYP2C9, CYP2C19, CYP2D6 and CYP3A4. The study of CYP450 inhibition potential in Bactosomes is accepted as a valuable model permitting rapid prediction of potential drug-drug interactions in vivo (see, e.g., Weaver et al., 2003).
# Bactosomes were obtained from a commercial source (Cypex, Scotland, UK). Test compounds were incubated with Bactosomes at 6 concentrations. Samples were incubated for 10 minutes, after which the reaction was stopped and the samples analysed by LC-MS/MS Multiple Reaction Monitoring (MRM) for the presence/amount of substrate probe. […]
# [4] = biological target: hERG ion channel (Homo sapiens (Human), UniProt Q12809); assay: hERG Ion Channel binding assay (3H astemizole displacement)
# Chain of hERG ion channel (Q12809 whole entry): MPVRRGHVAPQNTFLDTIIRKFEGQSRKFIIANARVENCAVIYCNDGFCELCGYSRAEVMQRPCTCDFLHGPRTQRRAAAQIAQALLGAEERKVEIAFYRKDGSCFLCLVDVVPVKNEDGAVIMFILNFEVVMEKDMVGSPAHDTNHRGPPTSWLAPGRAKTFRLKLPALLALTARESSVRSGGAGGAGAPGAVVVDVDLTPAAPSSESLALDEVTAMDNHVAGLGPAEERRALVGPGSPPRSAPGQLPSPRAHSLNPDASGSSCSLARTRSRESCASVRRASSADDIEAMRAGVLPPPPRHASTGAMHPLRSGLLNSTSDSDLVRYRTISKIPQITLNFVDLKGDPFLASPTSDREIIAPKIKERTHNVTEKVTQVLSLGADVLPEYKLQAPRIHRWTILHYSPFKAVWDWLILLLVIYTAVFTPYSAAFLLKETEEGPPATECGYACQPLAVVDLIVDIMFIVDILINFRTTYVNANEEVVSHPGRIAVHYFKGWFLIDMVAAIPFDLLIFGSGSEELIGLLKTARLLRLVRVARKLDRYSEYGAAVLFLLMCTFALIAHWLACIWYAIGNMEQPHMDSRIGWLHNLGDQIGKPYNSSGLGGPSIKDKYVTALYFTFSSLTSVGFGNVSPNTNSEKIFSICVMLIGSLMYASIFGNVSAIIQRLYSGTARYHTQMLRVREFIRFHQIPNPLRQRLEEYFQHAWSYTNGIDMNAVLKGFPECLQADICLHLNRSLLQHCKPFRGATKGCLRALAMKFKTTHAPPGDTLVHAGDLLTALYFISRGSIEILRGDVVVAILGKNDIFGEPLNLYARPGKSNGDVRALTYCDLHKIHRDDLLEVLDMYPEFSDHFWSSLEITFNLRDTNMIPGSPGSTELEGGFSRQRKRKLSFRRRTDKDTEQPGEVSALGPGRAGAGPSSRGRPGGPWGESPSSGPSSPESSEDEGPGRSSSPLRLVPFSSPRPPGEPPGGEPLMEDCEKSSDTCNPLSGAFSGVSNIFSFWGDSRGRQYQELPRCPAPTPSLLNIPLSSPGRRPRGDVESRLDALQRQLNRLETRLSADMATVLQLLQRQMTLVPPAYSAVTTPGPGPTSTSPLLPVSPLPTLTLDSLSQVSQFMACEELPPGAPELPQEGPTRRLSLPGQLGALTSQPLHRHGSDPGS
# Outline: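 Membranes from stably transfected hERG-HEK293 cells incubated with 1.5 nM ³H-astemizole ± test compound in HEPES buffer pH 7.4 (0.1% BSA, 5 mM KCl, 130 mM NaCl) at 25° C for 60 min. Bound ligand measured by filtration and scintillation counting; reported as % displacement (0% none, 100% complete).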
SMILES,% inhibition of disease [1],T1/2 [2],i.v. AUC [2],p.o. AUC ([2]; dosed at 5 mg/kg orally),"Bioavail, F [2]","drug-drug interaction liability, CYP450 inhibition profile (in words) [3]",p.o. AUC ([2]; 1.25 mg/kg orally),half-life [2],"cardiac safety profile, hERG (in words) [4]"
"CC1(O)CCC(NS(=O)(=O)c2ccc(-c3ccc(F)cc3F)cc2)CC1 (centres unmarked) [ABD899, reference compound]",77%,10.8 h,2133 ng/mL/min,10740 ^(4) ng/mL/min,50%,,,,
"CC(=O)N1CCC(CS(=O)(=O)c2ccc(-c3ccc(F)cc3F)cc2)CC1 [NASMP-01, 1-(4-(((2′,4′-Difluoro-[1,1′-biphenyl]-4-yl)sulfonyl)methyl)piperidin-1-yl)ethan-1-one]",64%,,816 ng/mL/min,,56%,particularly good profile,2299 ng/mL/min,6.6 h,particularly positive profile
"CC(=O)N1CCC(CS(=O)(=O)c2ccc(-c3ccc(C#N)cc3Cl)cc2)CC1 [NASMP-05, 4′-(((1-Acetylpiperidin-4-yl)methyl)sulfonyl)-2-chloro-[1,1′-biphenyl]-4-carbonitrile]",,,,,,particularly good profile,,,
"CC(=O)N1CCC(CS(=O)(=O)c2ccc(-c3ccc(Cl)cc3C#N)cc2)CC1 [NASMP-06, 4′-(((1-Acetylpiperidin-4-yl)methyl)sulfonyl)-4-chloro-[1,1′-biphenyl]-2-carbonitrile]",,,349 ng/mL/min,,24%,,3030 ng/mL/min,3.3 h,
"CC(=O)N1CCC(CS(=O)(=O)c2ccc(-c3c(F)cccc3F)cc2)CC1 [NASMP-09, 1-(4-(((2′,6′-Difluoro-[1,1′-biphenyl]-4-yl)sulfonyl)methyl)piperidin-1-yl)ethan-1-one]",,,,,,,,,particularly positive profile
"CC(=O)N1CCC(CS(=O)(=O)c2ccc(-c3ccc(F)cc3F)cc2C(F)(F)F)CC1 [NASMP-12, 1-(4-(((2′,4′-Difluoro-3-(trifluoromethyl)-[1,1′-biphenyl]-4-yl)sulfonyl)methyl)piperidin-1-yl)ethan-1-one]",,,581 ng/mL/min,,>69%,,3160 ng/mL/min,5.1 h,
"CCC(=O)N1CCC(CS(=O)(=O)c2ccc(-c3ccc(F)cc3F)cc2)CC1 [NASMP-15, 1-(4-(((2′,4′-Difluoro-[1,1′-biphenyl]-4-yl)sulfonyl)methyl)piperidin-1-yl)propan-1-one]",,,282 ng/mL/min,,>62%,,1750 ng/mL/min,4.9 h,
